Assay results as given in patent US20240327412A1, “FACTOR XIIA INHIBITORS” (KALVISTA PHARMACEUTICALS LIMITED, priority 2021, published 2024).

These molecules were tested against T1, Human Factor XIIa (Homo sapiens, UniProt P00748) (assay: Determination of FXIIa inhibition (fluorogenic substrate H-DPro-Phe-Arg-AFC, IC50 assay)). Details: substrate at Km concentration, 25° C.; category scale; read-out: Human FXII IC50 (nm).
T1 construct: Proteolytic cleavage of FXII to heavy and light chains of FXIIa dramatically increases catalytic activity; purchased Enzyme Research Laboratories
T1 sequence (P00748 373-615 limits assumed): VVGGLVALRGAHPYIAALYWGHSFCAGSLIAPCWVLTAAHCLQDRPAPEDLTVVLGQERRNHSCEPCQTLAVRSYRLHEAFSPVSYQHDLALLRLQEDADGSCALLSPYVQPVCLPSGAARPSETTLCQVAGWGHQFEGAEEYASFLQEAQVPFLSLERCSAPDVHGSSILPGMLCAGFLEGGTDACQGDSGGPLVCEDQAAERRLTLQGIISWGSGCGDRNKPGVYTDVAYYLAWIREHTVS
T1 sequence (P00748 20-372 partner limits assumed): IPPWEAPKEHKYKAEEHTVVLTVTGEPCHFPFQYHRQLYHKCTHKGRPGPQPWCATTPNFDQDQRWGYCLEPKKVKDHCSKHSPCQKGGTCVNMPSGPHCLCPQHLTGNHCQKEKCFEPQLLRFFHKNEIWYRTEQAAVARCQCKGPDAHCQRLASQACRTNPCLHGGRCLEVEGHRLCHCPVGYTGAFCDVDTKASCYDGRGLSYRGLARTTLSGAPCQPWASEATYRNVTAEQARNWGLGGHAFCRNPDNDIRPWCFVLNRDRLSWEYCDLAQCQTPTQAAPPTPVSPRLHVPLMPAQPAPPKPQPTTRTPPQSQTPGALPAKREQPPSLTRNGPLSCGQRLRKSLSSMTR
Assay type: biochemical
Outline: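 Human FXIIa incubated at 25° C. with fluorogenic H-DPro-Phe-Arg-AFC at its Km concentration plus varying compound levels. Linear fluorescence increase over 5 min taken as % activity; IC50 is concentration halving uninhibited activity.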

First: Nc1nccc2c(NCC34CC(COc5ccc6nncn6n5)(CO3)C4)cccc12 [Example 6638, N5-((4-(([1,2,4]triazolo[4,3-b]pyridazin-6-yloxy)methyl)-2-oxabicyclo[2.1.1]hexan-1-yl)methyl)isoquinoline-1,5-diamine]
Second: Nc1nccc2c(NCC34CC(COc5ccc6ncc(F)n6c5)(CO3)C4)cccc12 [Example 6625, N5-((4-(((3-fluoroimidazo[1,2-a]pyridin-6-yl)oxy)methyl)-2-oxabicyclo[2.1.1]hexan-1-yl)methyl)isoquinoline-1,5-diamine]
The IC50 of the first is higher: 1000 to 3000 nM for the first, 300 to 1000 nM for the second. The second is the more potent here.

`Cn1ccc(OCC23CN(C(=O)CCc4cccc(OC(F)F)c4)C(CNc4cccc5c(N)nccc45)(C2)C3)cc1=O` [Example 12056, 4-((1-(((1-aminoisoquinolin-5-yl)amino)methyl)-2-(3-(3-(difluoromethoxy)phenyl)propanoyl)-2-azabicyclo[2.1.1]hexan-4-yl)methoxy)-1-methylpyridin-2(1H)-one] and `Cn1ccc(OCC23CN(C(=O)CCc4ccc5cccnc5c4)C(CNc4cccc5c(N)nccc45)(C2)C3)cc1=O` [Example 12055, 4-((1-(((1-aminoisoquinolin-5-yl)amino)methyl)-2-(3-(quinolin-7-yl)propanoyl)-2-azabicyclo[2.1.1]hexan-4-yl)methoxy)-1-methylpyridin-2(1H)-one] fall in the same range of IC50: 10 to 100 nM for the first, 10 to 100 nM for the second.

First: Cn1nncc1OCC12CCOC(CNc3cccc4c(N)nccc34)(C1)C2 [Example 10946, N5-((5-(((1-methyl-1H-1,2,3-triazol-5-yl)oxy)methyl)-2-oxabicyclo[3.1.1]heptan-1-yl)methyl)isoquinoline-1,5-diamine]
Second: Nc1nccc2c(NCC34CC(COc5cnccn5)(CCO3)C4)cccc12 [Example 10976, N5-((5-((pyrazin-2-yloxy)methyl)-2-oxabicyclo[3.1.1]heptan-1-yl)methyl)isoquinoline-1,5-diamine]
The IC50 of the first is lower: 3000 to 10000 nM for the first, 10000 to 40000 nM for the second.

First: COc1cc(OCC23CCOC(CNc4cccc5c(N)nccc45)(C2)C3)ccn1 [Example 10944, N5-((5-(((2-methoxypyridin-4-yl)oxy)methyl)-2-oxabicyclo[3.1.1]heptan-1-yl)methyl)isoquinoline-1,5-diamine]
Second: Nc1nccc2c(NCC34CC(COc5ccc6c(c5)C(=O)NC6)(CCO3)C4)cccc12 [Example 10941, 6-((1-(((1-aminoisoquinolin-5-yl)amino)methyl)-2-oxabicyclo[3.1.1]heptan-5-yl)methoxy)isoindolin-1-one]
The IC50 of the first is higher: 1000 to 3000 nM for the first, 300 to 1000 nM for the second. The second is the more potent here.

`Cn1ccc(OCC23CN(C(=O)OCc4ccccn4)C(CNc4cccc5c(N)nccc45)(C2)C3)cc1=O` [Example 12021, pyridin-2-ylmethyl 1-(((1-aminoisoquinolin-5-yl)amino)methyl)-4-(((1-methyl-2-oxo-1,2-dihydropyridin-4-yl)oxy)methyl)-2-azabicyclo[2.1.1]hexane-2-carboxylate] and `COc1ccccc1CNC(=O)N1CC2(COc3ccn(C)c(=O)c3)CC1(CNc1cccc3c(N)nccc13)C2` [Example 12067, 1-(((1-aminoisoquinolin-5-yl)amino)methyl)-N-(2-methoxybenzyl)-4-(((1-methyl-2-oxo-1,2-dihydropyridin-4-yl)oxy)methyl)-2-azabicyclo[2.1.1]hexane-2-carboxamide] fall in the same range of IC50: 10 to 100 nM for the first, 10 to 100 nM for the second.

Compared with `Cn1ccc(OCC23CC(CNc4cccc5c(N)nccc45)(CN2C(=O)Oc2ccccc2Cl)C3)cc1=O` [Example 13004, 2-chlorophenyl 4-(((1-aminoisoquinolin-5-yl)amino)methyl)-1-(((1-methyl-2-oxo-1,2-dihydropyridin-4-yl)oxy)methyl)-2-azabicyclo[2.1.1]hexane-2-carboxylate], `Cn1ccc(OCC23CC(CNc4cccc5c(N)nccc45)(CN2C(=O)CCc2ccccc2)C3)cc1=O` [Example 13008, 4-((4-(((1-aminoisoquinolin-5-yl)amino)methyl)-2-(3-phenylpropanoyl)-2-azabicyclo[2.1.1]hexan-1-yl)methoxy)-1-methylpyridin-2(1H)-one] is higher in IC50: 100 to 300 nM for the first, 300 to 1000 nM for the second.

Compared with `COc1ccc(CNC(=O)N2CC3(COc4ccn(C)c(=O)c4)CC2(CNc2cccc4c(N)nccc24)C3)cc1` [Example 12062, 1-(((1-aminoisoquinolin-5-yl)amino)methyl)-N-(4-methoxybenzyl)-4-(((1-methyl-2-oxo-1,2-dihydropyridin-4-yl)oxy)methyl)-2-azabicyclo[2.1.1]hexane-2-carboxamide], `COc1ccc(NC(=O)N2CC3(COc4ccn(C)c(=O)c4)CC2(CNc2cccc4c(N)nccc24)C3)cc1` [Example 12061, 1-(((1-Aminoisoquinolin-5-yl)amino)methyl)-N-(4-methoxyphenyl)-4-(((1-methyl-2-oxo-1,2-dihydropyridin-4-yl)oxy)methyl)-2-azabicyclo[2.1.1]hexane-2-carboxamide] is lower in IC50: 10 to 100 nM for the first, 1 to 10 nM for the second.

First: COc1ccc(C(=O)N2CC3(COc4ccn(C)c(=O)c4)CC2(CNc2cccc4c(N)nccc24)C3)cc1 [Example 12071, 4-((1-(((1-aminoisoquinolin-5-yl)amino)methyl)-2-(4-methoxybenzoyl)-2-azabicyclo[2.1.1]hexan-4-yl)methoxy)-1-methylpyridin-2(1H)-one]
Second: Cn1ccc(OCC23CN(C(=O)Nc4ccccc4F)C(CNc4cccc5c(N)nccc45)(C2)C3)cc1=O [Example 12068, 1-(((1-aminoisoquinolin-5-yl)amino)methyl)-N-(2-fluorophenyl)-4-(((1-methyl-2-oxo-1,2-dihydropyridin-4-yl)oxy)methyl)-2-azabicyclo[2.1.1]hexane-2-carboxamide]
The IC50 of the first is higher: 10 to 100 nM for the first, 1 to 10 nM for the second.

Compared with `Nc1nccc2c(NCC34CC(COc5ccc6ncc(C(F)F)n6c5)(CO3)C4)cccc12` [Example 6644, 5-N-[[4-[[3-(Difluoromethyl)imidazo[1,2-a]pyridin-6-yl]oxymethyl]-2-oxabicyclo[2.1.1]hexan-1-yl]methyl]isoquinoline-1,5-diamine], `Nc1nccc2c(NCC34CC(COc5ccc6c(c5)C(=O)NC6=O)(CO3)C4)cccc12` [Example 6636, 5-((1-(((1-aminoisoquinolin-5-yl)amino)methyl)-2-oxabicyclo[2.1.1]hexan-4-yl)methoxy)isoindoline-1,3-dione] is higher in IC50: 300 to 1000 nM for the first, 3000 to 10000 nM for the second. The first is the more potent here.

`Cn1ccc(OCC23CC(CNc4cccc5c(N)nccc45)(CN2C(=O)CCc2cccnc2)C3)cc1=O` [Example 13010, 4-((4-(((1-aminoisoquinolin-5-yl)amino)methyl)-2-(3-(pyridin-3-yl)propanoyl)-2-azabicyclo[2.1.1]hexan-1-yl)methoxy)-1-methylpyridin-2(1H)-one] and `Cn1ccc(OCC23CC(CNc4cccc5c(N)nccc45)(CN2CCCc2ccccc2)C3)cc1=O` [Example 13015, 4-((4-(((1-aminoisoquinolin-5-yl)amino)methyl)-2-(3-phenylpropyl)-2-azabicyclo[2.1.1]hexan-1-yl)methoxy)-1-methylpyridin-2(1H)-one] fall in the same range of IC50: 100 to 300 nM for the first, 100 to 300 nM for the second.

First: Cn1ccc(OCC23CNC(CNc4ccc5c(N)nccc5c4)(C2)C3)cc1=O [Example 12011, 4-((1-(((1-aminoisoquinolin-6-yl)amino)methyl)-2-azabicyclo[2.1.1]hexan-4-yl)methoxy)-1-methylpyridin-2(1H)-one]
Second: CC(C)c1cc(OCC23CCOC(CNc4cccc5c(N)nccc45)(C2)C3)ncn1 [Example 10948, N5-((5-(((6-isopropylpyrimidin-4-yl)oxy)methyl)-2-oxabicyclo[3.1.1]heptan-1-yl)methyl)isoquinoline-1,5-diamine]
The IC50 of the first is lower: 300 to 1000 nM for the first, 1000 to 3000 nM for the second. The first is the more potent here.
